COc1ccc(Cl)cc1C(=O)NCCc1ccc(S(=O)(=O)NC(=O)NC2CCCCC2)cc1
solubility (mole fraction)
Conditions | 283.15 K | 288.15 K | 293.15 K | 298.15 K | 303.15 K | 308.15 K | 313.15 K | 318.15 K | 323.15 K
in acetone | 0.000443 | 0.000559 | 0.000701 | 0.00088 | 0.00112 | 0.0014 | 0.00175 | 0.00219 | 0.00269
in ethanol | 0.000103 | 0.000145 | 0.000196 | 0.000259 | 0.000333 | 0.000437 | 0.00062 | 0.000893 | 0.00122
in ethyl acetate | 8.63e-05 | 0.000115 | 0.000146 | 0.000186 | 0.000236 | 0.000307 | 0.000394 | 0.000511 | 0.000647
in isopropanol | 7.96e-05 | 9.98e-05 | 0.00013 | 0.000176 | 0.000216 | 0.000286 | 0.000422 | 0.000607 | 0.000892
in methanol | 0.000129 | 0.000172 | 0.00022 | 0.0003 | 0.000378 | 0.000477 | 0.00066 | 0.00103 | 0.00137
in water | 8.38e-08 | 8.83e-08 | 1.05e-07 | 1.28e-07 | 1.64e-07 | 2.3e-07 | 3.24e-07 | 4.54e-07 | 7.84e-07

From BigSolDB 2.1
